Test results reported in patent US20080248511A1, “METHODS TO QUENCH LIGHT FROM OPTICAL REACTIONS” (priority 2007, published 2008).

What was measured:
firefly luciferase = firefly luciferase (Photinus pyralis, UniProt P08659); test: Non-detergent compound screen, firefly luciferase (Example 6); type: biochemical; details: 0.5% Tergitol NP-9, 0.03% BDDABr; for remaining activity at 10 µM / remaining activity at 100 µM / remaining activity at 1000 µM / remaining activity at 23 µM / remaining activity at 153 µM: read-out: Retained Firefly Luciferase Value (%); for remaining activity at 23 µM: inhibitor 23 μM; for remaining activity at 153 µM: inhibitor 153 μM
Sequence of firefly luciferase (P08659 whole entry): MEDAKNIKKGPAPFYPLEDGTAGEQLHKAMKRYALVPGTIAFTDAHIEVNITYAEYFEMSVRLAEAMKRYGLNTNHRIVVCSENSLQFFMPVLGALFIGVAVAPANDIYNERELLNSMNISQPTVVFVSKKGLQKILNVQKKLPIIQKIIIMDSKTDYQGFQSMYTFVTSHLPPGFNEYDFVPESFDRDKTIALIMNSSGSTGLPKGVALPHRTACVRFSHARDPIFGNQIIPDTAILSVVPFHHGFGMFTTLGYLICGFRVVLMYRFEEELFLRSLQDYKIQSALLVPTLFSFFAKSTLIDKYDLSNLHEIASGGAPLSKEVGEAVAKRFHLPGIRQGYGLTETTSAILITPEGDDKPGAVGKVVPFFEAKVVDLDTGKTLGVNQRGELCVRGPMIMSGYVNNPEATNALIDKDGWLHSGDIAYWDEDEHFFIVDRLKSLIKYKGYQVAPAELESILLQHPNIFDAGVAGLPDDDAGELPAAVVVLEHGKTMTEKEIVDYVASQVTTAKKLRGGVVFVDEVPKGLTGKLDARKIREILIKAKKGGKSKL
Experimental: (§1) Each compound was diluted into 200 mM MOPS pH 6.7, 4 μM MgSO4, 1 mM CDTA, 0.5% Tergitol NP-9, 0.05% Mazu-DF-204, 0.03% BDDABr, 30 mM thiourea, 1 mM bis-(2-mercaptoethylsulfone) (BMS), 4 μM CoA, and 1 μM 5-fluoroluciferin. Just prior to the luciferase reaction, 0.1% Prionex® (Pentapharm) and 2.9 μM coelenterazine-h (Promega) were added to each solution.
(§2) The firefly luciferase and Renilla luciferase enzymes were diluted as described in Examples 3 and 5. The luciferase reactions were initiated by adding 50 μl of the firefly luciferase and Renilla luciferase enzyme solution to 50 μl of reagent solution. The reactions were performed as described above. The retained Renilla and firefly luciferase-mediated luminescence and selectivity values for each inhibitor tested are listed in Table 6.

Renilla luciferase = molecular target: T1, Renilla luciferase (Renilla reniformis, UniProt P27652); test: Non-detergent compound screen, Renilla luciferase (Example 6); type: biochemical; details: for remaining activity at 10 µM / remaining activity at 100 µM / remaining activity at 1000 µM / remaining activity at 23 µM / remaining activity at 153 µM / Retained Renilla Luciferase Value (%): 0.5% Tergitol NP-9, 0.03% BDDABr; for remaining activity at 10 µM / remaining activity at 100 µM / remaining activity at 1000 µM / remaining activity at 23 µM / remaining activity at 153 µM: read-out: Retained Renilla Luciferase Value (%)
T1 sequence (P27652 1-311): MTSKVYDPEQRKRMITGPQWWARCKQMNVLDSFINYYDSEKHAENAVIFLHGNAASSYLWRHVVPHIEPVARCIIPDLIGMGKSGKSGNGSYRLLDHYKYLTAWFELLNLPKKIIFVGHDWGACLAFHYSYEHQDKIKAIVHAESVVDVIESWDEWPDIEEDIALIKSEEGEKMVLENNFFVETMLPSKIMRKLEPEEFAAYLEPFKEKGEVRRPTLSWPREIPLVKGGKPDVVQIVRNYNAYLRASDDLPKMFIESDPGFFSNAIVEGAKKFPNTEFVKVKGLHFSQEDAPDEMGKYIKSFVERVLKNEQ
Experimental: as §1, §2

| SMILES | remaining activity at 10 µM (firefly luciferase; inhibitor 10 μM) [%] | remaining activity at 100 µM (firefly luciferase; inhibitor 100 μM) [%] | remaining activity at 1000 µM (firefly luciferase; inhibitor 1000 μM) [%] | inhibitor of Renilla luciferase, grade in words (Renilla luciferase) | Selectivity Value (Renilla luciferase; inhibitor 10 μM) | remaining activity at 10 µM (Renilla luciferase; inhibitor 10 μM) [%] | Selectivity Value (Renilla luciferase; inhibitor 100 μM) | remaining activity at 100 µM (Renilla luciferase; inhibitor 100 μM) [%] | Selectivity Value (Renilla luciferase; inhibitor 1000 μM) | remaining activity at 1000 µM (Renilla luciferase; inhibitor 1000 μM) [%] | remaining activity at 23 µM (firefly luciferase) [%] | remaining activity at 153 µM (firefly luciferase) [%] | Selectivity Value (Renilla luciferase; inhibitor 23 μM) | remaining activity at 23 µM (Renilla luciferase; inhibitor 23 μM) [%] | Selectivity Value (Renilla luciferase; inhibitor 153 μM) | remaining activity at 153 µM (Renilla luciferase; inhibitor 153 μM) [%] | further results |
| --- | --- | --- | --- | --- | --- | --- | --- | --- | --- | --- | --- | --- | --- | --- | --- | --- | --- |
| COc1ccc(CNC(=O)/C=C/c2ccc3c(ccc[n+]3C)c2)cc1.[I-] [Compound 3061, (E)-6-(3-(4-methoxybenzylamino)-3-oxoprop-1-enyl)-1-methylquinolinium iodide] | 103 | 100 | 82 | inhibitors of Renilla luciferase | 1.1 | 96 | 1.8 | 85 | 2.3 | 36 | – | – | – | – | – | – | – |
| C=C(C(=O)NCc1ccc(OC)cc1)c1ccc2oc(=O)cc(C)c2c1 [Compound 3058, N-(4-methoxybenzyl)-2-(4-methyl-2-oxo-2H-chromen-6-yl)acrylamide] | – | – | 103 | suitable inhibitors of Renilla luciferase | – | – | – | – | 1.04 | 98.8 | 101 | 102 | 1.05 | 96 | 1.04 | 98 | – |
| CN(C)CCc1c[nH]c2ccc(/C=C/C(=O)NCc3ccc(N(C)C)cc3)cc12 [Compound 3043, (E)-N-(4-(dimethylamino)benzyl)-3-(3-(2-(dimethylamino)ethyl)-1H-indol-5-yl)acrylamide] | – | – | – | excellent inhibitors of Renilla luciferase | – | – | – | – | – | – | – | – | – | – | – | – | – |
| COc1cc(CNC(=O)/C=C/c2ccc3[nH]cc(CCN(C)C)c3c2)cc(OC)c1OC [Compound 3072, (E)-3-(3-(2-(dimethylamino)ethyl)-1H-indol-5-yl)-N-(3,4,5-trimethoxybenzyl)acrylamide] | 101 | 101 | 101 | inhibitors of Renilla luciferase | 1 | 101 | 1.1 | 95 | 1.8 | 55.2 | – | – | – | – | – | – | – |
| COc1ccc(CNC(=O)/C=C/c2ccc3c(c2)c(CCN(C)C)cn3C)cc1 [Compound 3049, (E)-3-(3-(2-(dimethylamino)ethyl)-1-methyl-1H-indol-5-yl)-N-(4-methoxybenzyl)acrylamide] | – | – | – | excellent inhibitors of Renilla luciferase | – | – | – | – | – | – | – | – | – | – | – | – | – |
| COc1ccc(CNC(=O)/C=C/c2ccc3[nH]cc(CCN(C)C)c3c2)cc1 [Compound 3068, (E)-3-(3-(2-(dimethylamino)ethyl)-1H-indol-5-yl)-N-(4-methoxybenzyl)acrylamide] | 101 | 102 | 102 | excellent inhibitors of Renilla luciferase | 2.5 | 40 | 10.2 | 10 | 48.6 | 2.1 | – | – | – | – | – | – | – |
| C=C(C(=O)NCc1ccc(OC)cc1)c1ccc2ncccc2c1 [Compound 3053, N-(4-methoxybenzyl)-2-(quinolin-6-yl)acrylamide] | – | – | 91 | suitable inhibitors of Renilla luciferase | – | – | – | – | 1.1 | 84.7 | 100 | 97 | 1.1 | 95 | 1.1 | 90 | – |
| COc1ccc(CNC(=O)/C(C#N)=C/CCCCCCCBr)cc1 [Compound 3059, (E)-10-bromo-2-cyano-N-(4-methoxybenzyl)dec-2-enamide] | – | – | 101 | suitable inhibitors of Renilla luciferase | – | – | – | – | 1.07 | 94.6 | 101 | 101 | 1.02 | 99 | 1.05 | 96 | – |
| CCCCCCCC[N+](C)(C)CCc1c[nH]c2ccc(/C=C/C(=O)NCc3ccc(OC)cc3)cc12.[I-] [Compound 3070, (E)-N-(2-(5-(3-(4-methoxybenzylamino)-3-oxoprop-1-enyl)-1H-indol-3-yl)ethyl)-N,N-dimethyloctan-1-ammonium iodide] | – | – | – | excellent inhibitors of Renilla luciferase | 3.3 | – | 16 | – | 78.2 | – | – | – | – | – | – | – | Retained Firefly Luciferase Value (%) (firefly luciferase; inhibitor 10 μM): 99%; Retained Firefly Luciferase Value (%) (firefly luciferase; inhibitor 100 μM): 96%; Retained Firefly Luciferase Value (%) (firefly luciferase; inhibitor 1000 μM): 86%; Retained Renilla Luciferase Value (%) (Renilla luciferase; inhibitor 10 μM): 30%; Retained Renilla Luciferase Value (%) (Renilla luciferase; inhibitor 100 μM): 6%; Retained Renilla Luciferase Value (%) (Renilla luciferase; inhibitor 1000 μM): 1.1% |
| COc1ccc(CNC(=O)/C=C/c2ccc3[nH]cc(CCCN(C)C)c3c2)cc1 [Compound 3071, (E)-3-(3-(3-(dimethylamino)propyl)-1H-indol-5-yl)-N-(4-methoxybenzyl)acrylamide] | 101 | 101 | 100 | excellent inhibitors of Renilla luciferase | 1.8 | 57 | 6.7 | 15 | 40 | 2.5 | – | – | – | – | – | – | – |
| COc1ccc(CNC(=O)/C=C/c2ccc3c(c2)c(CCN(C)C)cn3Cc2ccccc2)cc1 [Compound 3055, (E)-3-(1-benzyl-3-(2-(dimethylamino)ethyl)-1H-indol-5-yl)-N-(4-methoxybenzyl)acrylamide] | 100 | 98 | 99 | inhibitors of Renilla luciferase | 1.2 | 85 | 2.2 | 44 | 5.0 | 20 | – | – | – | – | – | – | – |
| COc1ccc(COC(=O)/C=C/c2ccc3[nH]cc(CCN(C)C)c3c2)cc1 [Compound 3045, (E)-4-methoxybenzyl 3-(3-(2-(dimethylamino)ethyl)-1H-indol-5-yl)acrylate] | – | – | 98 | suitable inhibitors of Renilla luciferase | – | – | – | – | 1.3 | 74.7 | 100 | 100 | 1.0 | 97 | 1.0 | 98 | – |
| C=C(C(=O)NCc1ccc(OC)cc1)c1ccc2[nH]ccc2c1 [Compound 3054, 2-(1H-indol-5-yl)-N-(4-methoxybenzyl)acrylamide] | – | – | 101 | suitable inhibitors of Renilla luciferase | – | – | – | – | 1.1 | 93.3 | 101 | 102 | 1.1 | 95 | 1.1 | 95 | – |
| COc1ccc(CNC(=O)/C(C#N)=C/c2ccc3[nH]cc(CCN(C)C)c3c2)cc1 [Compound 3044, (E)-2-cyano-3-(3-(2-(dimethylamino)ethyl)-1H-indol-5-yl)-N-(4-methoxybenzyl)acrylamide] | 99 | 100 | 132 | inhibitors of Renilla luciferase | 1.2 | 85 | 2.8 | 36 | 18.9 | 7.6 | – | – | – | – | – | – | – |
